From patent US20230212571A1, “COMPOSITIONS AND METHODS FOR DELIVERING POLYNUCLEOTIDES” (NeOnc Technologies, Inc., priority 2020, published 2023)

Assays:
[1] = test system: AVM-BEC; experiment: Invasion assay, Matrigel-coated Boyden chamber, AVM-BEC; format: cell-based, human; details: overnight, P=0.0012
Description: The chemoinvasion assay was described^14. (Marín-Ramos N I, Thein T Z, Cho H-Y, et al. NEO212 inhibits migration and invasion of glioma stem cells. Mol Cancer Ther. 2018; 17(3):625-637). Pictures were captured using an Eclipse 80i microscope (Nikon), and cells counted with ImageJ Software (NIH).

[2] = test system: Mgp^−/− mouse model of AVM; experiment: In vivo computed tomography angiography (CTA) of brain vasculature
Description: In vivo ultra-high-resolution computed tomography angiography (CTA) was performed to study changes in neurovascular architecture like methods described previously. (Mukundan S, Jr., […], Badea C T, et al. A liposomal nanoscale contrast agent for preclinical CT in mice. AJR Am J Roentgenol. 2006; 186(2):300-307) ([…], Rendon D, et al. Ultra-High-Resolution In vivo Computed Tomography Imaging of Mouse Cerebrovasculature Using a Long Circulating Blood Pool Contrast Agent. Scientific reports. 2015; 5:10178). Briefly, mice were anesthetized using 3-4% isoflurane, positioned on a CT cradle and maintained at 1-1.5% isoflurane delivered via nose cone. Mice were intravenously injected a long circulating liposomal-iodine blood pool contrast agent (2.2 g/kg body weight) for CTA^8,9 and scanned on a small animal micro-CT scanner Rigaku CT Lab GX90-1-E. The following scan parameters were used: High Resolution Scan Mode, 70 kVp, 114 uA, 10 mm FOV, 1440 projections, 20 μm voxel size, 14 min scan time. All animal protocols were approved by the USC's Institutional Animal Care and Use Committee (IACUC) and strictly adhered to. MiR-18a was co-administered with Ago-2 (0.0008 nmol/mouse) to increase stability and cellular uptake^9 (Ferreira R, Santos T, Amar A, et al. Argonaute-2 promotes miR-18a entry in human brain endothelial cells. J Am Heart Assoc. 2014; 3(3):e000968). (FIG. 9). Details about randomization, blinding, group size and inclusion/exclusion criteria have been included in Methods. […] The vascular data was quantified using ImageJ. […] The pixels were analyzed as particles and normalized to results from the wildtype mice (WT, Mgp^+/+).

[3] = test system: AVM-BEC; experiment: Immunostaining of MMP2 and MMP9 in AVM-BEC; format: cell-based, human
Description: Immunostaining was performed as previously described^15. (Virrey J J, Golden E B, Sivakumar W, et al. Glioma-associated endothelial cells are chemoresistant to temozolomide. J Neurooncol. 2009; 95(1):13-22). Primary antibodies used were rabbit anti-MMP2, mouse anti-MMP9 (1:150, Abgent), rabbit anti-phospho-Smad1/5 (Ser463/465) (1:50, Abgent), rabbit anti-BMP4, rabbit anti-PAI-1 (1:50, Proteintech), rabbit anti-VEGF (1:50, Santa Cruz Biotechnology), rabbit anti-HIF-1α (1:50, Cell Signaling Technology), and rabbit anti-phospho-Smad3 (Ser423/425) (1:50, GeneTex). Secondary antibodies used were biotinylated anti-rabbit and biotinylated anti-mouse (1:300, Vector Laboratories), accordingly. Pictures were taken in an Eclipse 80i microscope (Nikon). Images shown are representative of three-five independent experiments.

hsa-miR-18a-5p (UAGGUGCAUCUAGUGCAGAUAG; chemistry not given here; listed as Homo sapiens) [small non-coding RNA molecule involved in post-transcriptional regulation of gene expression; Dharmacon]
invasiveness [1]: decreased
AzACA vessel density compared to healthy wildtype mice ([2]; 0.08 nmol/mouse IN daily for 2-weeks with Ago-2): 92-94%
brain vasculature and leakage (CTA) ([2]; Mgp^−/− mice, IN 2-weeks): normalized
calcifications found in carotids ([2]; Mgp^−/− mice, IN 2-weeks): no effect
MMP9 expression (immunostaining) [3]: did not decrease
